Results taken from patent US5663152A, “Potentiators for aminoglycosides” (Asahi Kasei Kogyo Kabushiki Kaisha, priority 1995, dated 1997).
Converted amounts (≈) assume the structure as drawn. Like-named read-outs stand apart in the source and are kept apart here.

Key:
[1] = test system: Escherichia coli (ATCC 10536); assay: Minimum inhibitory concentration by broth dilution, Escherichia coli (ATCC 10536); assay type: cell-based; details: for MIC: Escherichia coli, ATCC10536, 48 h, read-out: MIC Alone
Source text: (§1) Microorganism strains were supplied by the ATCC. Staphylococcus aureus is a clinically significant member of the gram-positive group of bacterial pathogens. It gives rise to serious infections, and may produce bacteremia, endocarditis, and meningitis. Methicillin-resistant strains of Staphylococcus aureus were chosen for evaluation because they present a significant medical problem, in view of the fact that methicillin is the drug of choice for treatment of S. aureus infection in the common penicillin-resistant strains.
(§2) Escherichia coli is also a gram-negative pathogenic bacillus which may cause enteritis, peritonitis, or cystitis.
(§3) The MICs were determined by the broth dilution method (Kubo et al. J. Agric. Food Chem. 1992, 40, 245-248). Test compounds were dissolved in Di-Methyl Formamide("DMF") to make stock solution at concentrations of 80, 40, 20, or 10 mg/ml depending upon the potency and solubility. An aliquot of 0.01 ml of the stock solution was added to a tube containing 0.99 ml of media to get the initial concentration of testing solution. Serial two-fold dilutions were made by mixing 0.5 ml of testing solution with 0.5 ml of blank medium. A 0.5 ml aliquot of diluted inoculum containing an appropriate concentration of the test microorganism (1:100 dilution of the initial inoculum) was then added into each tube containing 0.5 ml serial dilutions of the test compound. After incubating for 2 days at 37° C., the tube was evaluated for visible growth. The MIC was determined as the lowest concentration of a compound which prevented visible microorganism growth. A culture growth control without compound (solvent only) and several culture sensitive reference agents were used as positive controls. The assays were performed in duplicate.

[2] = test system: Escherichia coli (ATCC 10536); assay: Minimum biocidal concentration, Escherichia coli (ATCC 10536); assay type: cell-based; details: for MBC: Escherichia coli
Source text: as §1, §2
(§4) After determining the MIC, 0.1 ml of a ten-fold dilution from each tube showing no turbidity was plated onto chemical free nutrient agar plates. After 24 hours of incubation, the colonies were counted. The MBC was the lowest concentration of antibacterial compound that decreased the initial inoculum population by >99.9 percent. The initial population for E. coli. was 1×10^7 -6×10^7 colony forming units (CFU) per ml; for P. aeruginosa was 1×10^6 -5×10^6 CFU per ml; and for methicillin-resistant Staphylococcus aureus (MRSA) was 2×10^6 -7×10^6 CFU per ml.

[3] = test system: Pseudomonas aeruginosa (ATCC 10145); assay: Minimum inhibitory concentration by broth dilution, Pseudomonas aeruginosa (ATCC 10145); assay type: cell-based; details: for MIC: Pseudomonas aeruginosa, ATCC10145, 48 h, read-out: MIC Alone
Source text: as §1
(§5) Pseudomonas aeruginosa was also chosen for evaluation. P. aerugtnosa is a gram-negative pathogenic bacillus which may cause urinary tract infections or pneumonia.
as §3

[4] = test system: Pseudomonas aeruginosa (ATCC 10145); assay: Minimum biocidal concentration, Pseudomonas aeruginosa (ATCC 10145); assay type: cell-based; details: for MBC: Pseudomonas aeruginosa, ATCC10145, read-out: MBC Alone
Source text: as §1, §5, §4

[5] = test system: Methicillin-resistant Staphylococcus aureus (ATCC 33591); assay: Minimum inhibitory concentration by broth dilution, MRSA (ATCC 33591); assay type: cell-based; details: substance alone, 2 days at 37° C.; for MIC: Staphylococcus aureus, 48 h
Source text: as §1, §3

[6] = test system: Methicillin-resistant Staphylococcus aureus (ATCC 33591); assay: Minimum biocidal concentration, MRSA (ATCC 33591); assay type: cell-based; details: substance alone, >99.9 percent decrease of inoculum; for MBC: Staphylococcus aureus
Source text: as §1, §4

[7] = occurring in foods, routinely consumed in the diet; in words; cited from earlier work
[8] = in words; cited from earlier work
[9] = test system: gram-negative and gram-positive organisms; details: in words, cited from earlier work
[10] = test system: aminoglycoside-inactivating enzymes; details: in words; cited from earlier work
[11] = read-out: MIC Alone, MRSA ATCC 33591
[12] = read-out: MBC Alone, MRSA ATCC 33591
[13] = E. coli ATCC 10536, substance alone, 2 days at 37° C.
[14] = MRSA ATCC 33591, read-out: MIC Alone
[15] = MRSA ATCC 33591, read-out: MBC Alone

Row | Compound | MIC [1] | MBC ([2]; ATCC10536, read-out: MBC Alone) | MIC [3] | MBC [4] | MIC Alone ([5]; MRSA ATCC 33591) | MIC [5, 11] | MBC Alone ([6]; MRSA ATCC 33591) | MBC [6, 12] | toxicity of potentiators [7] | side effects [8] | MIC [5, 14] | MBC [6, 15] | antibacterial activity in vitro [9] | also measured
1 | CCCC=CC=O [2-Hexenal, 2-hexenal] | 200 µg/mL (≈ 2.04 mM) | 200 µg/mL (≈ 2.04 mM) | 200 µg/mL (≈ 2.04 mM) | 200 µg/mL (≈ 2.04 mM) | 200 µg/mL (≈ 2.04 mM) | 400 µg/mL (≈ 4.08 mM) | 400 µg/mL (≈ 4.08 mM) | 800 µg/mL (≈ 8.15 mM) | routinely consumed in the diet without apparent harm | – | – | – | – | –
2 | c1ccc2[nH]ccc2c1 [Indole, indole] | 800 µg/mL (≈ 6.83 mM) | 800 µg/mL (≈ 6.83 mM) | 400 µg/mL (≈ 3.41 mM) | 800 µg/mL (≈ 6.83 mM) | – | 800 µg/mL (≈ 6.83 mM) | – | 1600 µg/mL (≈ 13.7 mM) | routinely consumed in the diet without apparent harm | – | – | – | – | –
3 | Gentamicin [reference compound] | – | – | – | – | 1.56 µg/mL | – | 1.56 µg/mL | – | – | strong side effects, such as nephrotoxicity, ototoxicity, or neuromuscular blockade | – | – | – | MIC Alone [1, 13]: 0.78 µg/mL; MBC Alone ([2]; E. coli ATCC 10536, substance alone, >99.9 percent decrease of inoculum): 0.78 µg/mL; MIC Alone ([3]; P. aeruginosa ATCC 10145, substance alone, 2 days at 37° C.): 0.39 µg/mL; MBC Alone ([4]; P. aeruginosa ATCC 10145, substance alone, >99.9 percent decrease of inoculum): 0.78 µg/mL
4 | NC[C@H]1O[C@H](O[C@H]2[C@H](O)[C@@H](O[C@H]3O[C@H](CO)[C@@H](O)[C@H](N)[C@H]3O)[C@H](N)C[C@@H]2N)[C@H](N)C[C@@H]1O [Tobramycin] | – | – | – | – | – | – | – | – | – | strong side effects, such as nephrotoxicity, ototoxicity, or neuromuscular blockade | 800 µg/mL (≈ 1.71 mM) | 1600 µg/mL (≈ 3.42 mM) | broad range of activity against gram-negative and gram-positive organisms | mode of action ([9]; in vitro tests): bactericidal and that it acts by interfering with protein synthesis in bacterial cells
5 | NCC[C@H](O)C(=O)N[C@@H]1C[C@H](N)[C@@H](O[C@H]2O[C@H](CN)[C@@H](O)[C@H](O)[C@H]2O)[C@H](O)[C@H]1O[C@H]1O[C@H](CO)[C@@H](O)[C@H](N)[C@H]1O [Amikacin] | – | – | – | – | – | – | – | – | – | strong side effects, such as nephrotoxicity, ototoxicity, or neuromuscular blockade | 200 µg/mL (≈ 0.342 mM) | 200 µg/mL (≈ 0.342 mM) | broad range of activity against gram-negative and gram-positive organisms | degradation by aminoglycoside-inactivating enzymes [10]: resists degradation by most aminoglycoside-inactivating enzymes
6 | CC=Cc1ccc(OC)cc1 [Anethole, anethole] | – | – | – | – | – | – | – | – | routinely consumed in the diet without apparent harm | – | > 1600 µg/mL | > 1600 µg/mL | – | MIC [1, 13]: 400 µg/mL (≈ 2.7 mM); MBC ([2]; ATCC10536, E. coli ATCC 10536, substance alone, >99.9 percent decrease of inoculum, read-out: MBC Alone): 800 µg/mL (≈ 5.4 mM)
